Experimental data published in patent US20250129045A1, “SMALL MOLECULE PIM AND MTOR KINASE INHIBITOR AND METHODS OF USE THEREOF” (Arizona Board of Regents on Behalf of the University of …, priority 2022, published 2025).
Entries after “also recorded” stand apart in the source; their conditions may differ. Read-outs that look alike come from different tables or passages of the source.

Assays:
[1] = tested on: PANC1 pancreatic cancer cells; assay: Growth inhibition of PANC1 pancreatic cancer cells; type: cell-based
Procedure: Cell growth assay: Tumor cells were seeded into 48 well plates (1000 cells/well) and treated with varied agents. The Incucyte real-time imaging system (Incucyte) was used to measure cell proliferation using a non-label cell monolayer confluence approach. The images were captured every 12 h. Graphs were generated using an integrated confluence metric as an alternative for cell numbers. At the end of the study cell growth was visualized by crystal violet staining.
Because of ease of growth, PANC1 pancreatic cancer cells were used to test the activity of derivatives of VBT-5445 (FIG. 14). […] Using a doxycycline inducible Pim kinase vector in these tumor cells, this inhibition of phosphorylation was proportional to the level of Pim in these cells (FIG. 9). […] Inhibition of mTORC1 is known to stimulate the feedback activation of mTORC2 leading to AKT phosphorylation. […] The effect of these compounds on mTORC1 and 2 was still evident in PC3-LN4 cells that contained a knockout (KO) using CRISPR/CAS9 of either TSC2 or DEPDC5 (FIG. 12, lanes 4-9). TSC2 KO activated the Rheb GTPase while DEPDC5 KO activated the RAG GTPase both of which stimulate mTORC1 activity. Thus, GRG compounds were capable of inhibiting mTORC1 activity even when this kinase was highly activated.

PANC1 cells = assay: Reverse-phase protein array (RPPA) of PANC1 cells, Table 3; type: cell-based; conditions: 6 h treatment, divided by zero-time value, average of triplicate
Procedure: To further examine how these compounds function to inhibit tumor growth, changes in both a wide variety of phosphoprotein and protein levels using reverse-phase protein arrays (RPPA) were evaluated. […] The values in the RPPA obtained at these two time points were divided by the value at time zero to allow an evaluation of the changes caused by each drug treatment.

With `O=c1c(CNCc2cc(Br)ccn2)cc2ccc(Cl)cc2n1CCOc1ccccc1` [GRG-1-34, 3-((((4-bromopyridin-2-yl)methyl)amino)methyl)-7-chloro-1-(2-phenoxyethyl) quinolin-2 (1H)-one] the “growth inhibitory activity against PANC1 pancreatic cancer cells” value [1] was “most active”, the “growth inhibitory activity against PANC1 pancreatic cancer cells” value ([1]; listed as VBT 1-34) was “inhibits the growth; also recorded: shows activity” and the “4EBP1S65, RPPA value after treatment / zero-time value” (PANC1 cells) was 0.52. The “4EBP1T70, RPPA value after treatment / zero-time value” (PANC1 cells) was 0.75, the “ATMS1981, RPPA value after treatment / zero-time value” (PANC1 cells) was 0.46 and the “CICaspase3D175, RPPA value after treatment / zero-time value” (PANC1 cells) was 1.09. For the same compound, the “CofilinS3, RPPA value after treatment / zero-time value” (PANC1 cells) was 0.46, the “CrkIIY221, RPPA value after treatment / zero-time value” (PANC1 cells) was 1.58 and the “ERKT202_Y204, RPPA value after treatment / zero-time value” (PANC1 cells) was 2.39. For the same compound, the “FAKY576_577, RPPA value after treatment / zero-time value” (PANC1 cells) was 0.78, the “FKHR-FOX01S256, RPPA value after treatment / zero-time value” (PANC1 cells) was 0.71 and the “GSK3a_bS21_9, RPPA value after treatment / zero-time value” (PANC1 cells) was 1.66. For the same compound, the “HistoneH2AXS139, RPPA value after treatment / zero-time value” (PANC1 cells) was 0.76, the “HistoneH3S10, RPPA value after treatment / zero-time value” (PANC1 cells) was 0.69 and the “IL-1bcleavedD116, RPPA value after treatment / zero-time value” (PANC1 cells) was 0.41. The “Jak1Y1022_1023, RPPA value after treatment / zero-time value” (PANC1 cells) was 0.79, the “MAPKpTEpY, RPPA value after treatment / zero-time value” (PANC1 cells) was 1.35 and the “PDGFRbY751, RPPA value after treatment / zero-time value” (PANC1 cells) was 7.02. The “PP1aT320, RPPA value after treatment / zero-time value” (PANC1 cells) was 0.47, the “PaxillinY118, RPPA value after treatment / zero-time value” (PANC1 cells) was 1.08 and the “RetY905, RPPA value after treatment / zero-time value” (PANC1 cells) was 0.77. The “S6RibosomalPS235_236, RPPA value after treatment / zero-time value” (PANC1 cells) was 1.05, the “S6RibosomalProtein S240_244, RPPA value after treatment / zero-time value” (PANC1 cells) was 0.95 and the “SAPK_JNKT183_Y185, RPPA value after treatment / zero-time value” (PANC1 cells) was 0.85. The “Stat2Y690, RPPA value after treatment / zero-time value” (PANC1 cells) was 2.89, the “Stat3Y705, RPPA value after treatment / zero-time value” (PANC1 cells) was 1.57 and the “Tyk2Y1054_1055, RPPA value after treatment / zero-time value” (PANC1 cells) was 0.39. For the same compound, the “VEGFR2Y1175, RPPA value after treatment / zero-time value” (PANC1 cells) was 0.54, the “YAPS127, RPPA value after treatment / zero-time value” (PANC1 cells) was 0.68 and the “cAbIY245, RPPA value after treatment / zero-time value” (PANC1 cells) was 0.87. For the same compound, the “cKitY703, RPPA value after treatment / zero-time value” (PANC1 cells) was 1.8, the “p38MAPKT180_Y182, RPPA value after treatment / zero-time value” (PANC1 cells) was 1.15 and the “p70S6KS371, RPPA value after treatment / zero-time value” (PANC1 cells) was 0.62. The “p70S6KT389, RPPA value after treatment / zero-time value” (PANC1 cells) was 0.74 and the “p90RSKS380, RPPA value after treatment / zero-time value” (PANC1 cells) was 1.51.
